For `Clc1ccccc1C(c1ccccc1)(c1ccccc1)n1ccnc1`, the solubility (mole fraction) (in ethanol, 293.2 K) was 0.0154, the solubility (mole fraction) (in ethanol, 298.2 K) was 0.0167 and the solubility (mole fraction) (in ethanol, 303.2 K) was 0.0216. It also gave a solubility (mole fraction) (in ethanol, 308.2 K) of 0.025, a solubility (mole fraction) (in ethanol, 313.2 K) of 0.0312 and a solubility (mole fraction) (in water, 293.2 K) of 2.42e-08. It also gave a solubility (mole fraction) (in water, 298.2 K) of 2.92e-08, a solubility (mole fraction) (in water, 303.2 K) of 3.38e-08 and a solubility (mole fraction) (in water, 308.2 K) of 3.77e-08. The solubility (mole fraction) (in water, 313.2 K) was 4.15e-08.
